Source: the NIST ThermoML archive (doi:10.1021/acs.jced.8b00975)
Numbers after ± are expanded uncertainties.

Assay: xn = mol fraction of the nth substance listed
Settings: Liquid, Vibrating tube method

C=C(C)C(=O)OCCN(C)C [2-(dimethylamino)ethyl methylpropenoate] + CCCCO
mass density [kg/m3]
Settings	100 kPa	5000 kPa	10000 kPa	15000 kPa	20000 kPa	25000 kPa	30000 kPa	35000 kPa
293.15 K, x1 = 0.0301	817.21 ± 0.52	820.9 ± 0.52	824.39 ± 0.53	827.71 ± 0.54	830.88 ± 0.56	833.94 ± 0.57	836.92 ± 0.58	839.85 ± 0.59
293.15 K, x1 = 0.06	824.09 ± 0.52	827.83 ± 0.52	831.32 ± 0.53	834.6 ± 0.54	837.73 ± 0.55	840.76 ± 0.56	843.75 ± 0.58	846.74 ± 0.59
293.15 K, x1 = 0.1005	833.13 ± 0.52	836.85 ± 0.52	840.32 ± 0.53	843.61 ± 0.54	846.74 ± 0.55	849.77 ± 0.56	852.74 ± 0.57	855.68 ± 0.58
293.15 K, x1 = 0.1995	852.44 ± 0.52	856.11 ± 0.52	859.55 ± 0.53	862.82 ± 0.54	865.96 ± 0.55	869 ± 0.56	872 ± 0.56	875.01 ± 0.57
293.15 K, x1 = 0.2993	868.71 ± 0.52	872.37 ± 0.53	875.83 ± 0.53	879.12 ± 0.54	882.28 ± 0.55	885.36 ± 0.55	888.38 ± 0.56	891.38 ± 0.57
293.15 K, x1 = 0.4005	882.69 ± 0.52	886.4 ± 0.53	889.87 ± 0.53	893.17 ± 0.54	896.32 ± 0.54	899.39 ± 0.55	902.42 ± 0.56	905.46 ± 0.56
293.15 K, x1 = 0.4521	889.04 ± 0.52	892.7 ± 0.53	896.14 ± 0.53	899.43 ± 0.54	902.58 ± 0.54	905.66 ± 0.55	908.71 ± 0.56	911.75 ± 0.56
293.15 K, x1 = 0.499	894.3 ± 0.52	897.94 ± 0.53	901.38 ± 0.53	904.66 ± 0.54	907.82 ± 0.55	910.91 ± 0.55	913.96 ± 0.56	917.02 ± 0.56
293.15 K, x1 = 0.5494	899.59 ± 0.52	903.22 ± 0.53	906.66 ± 0.53	909.96 ± 0.54	913.14 ± 0.54	916.24 ± 0.55	919.29 ± 0.55	922.33 ± 0.56
293.15 K, x1 = 0.5994	904.39 ± 0.53	908.07 ± 0.53	911.52 ± 0.54	914.8 ± 0.54	917.94 ± 0.54	921.02 ± 0.55	924.09 ± 0.55	927.2 ± 0.56
293.15 K, x1 = 0.7005	913.06 ± 0.53	916.73 ± 0.53	920.19 ± 0.54	923.49 ± 0.54	926.66 ± 0.55	929.77 ± 0.55	932.85 ± 0.55	935.95 ± 0.56
293.15 K, x1 = 0.7989	920.53 ± 0.53	924.22 ± 0.54	927.7 ± 0.54	931.01 ± 0.55	934.2 ± 0.55	937.32 ± 0.55	940.42 ± 0.56	943.55 ± 0.56
293.15 K, x1 = 0.8992	927.17 ± 0.54	930.88 ± 0.54	934.38 ± 0.55	937.71 ± 0.55	940.93 ± 0.55	944.08 ± 0.56	947.2 ± 0.56	950.36 ± 0.56
293.15 K, x1 = 0.9293	928.88 ± 0.54	932.61 ± 0.54	936.14 ± 0.55	939.5 ± 0.55	942.75 ± 0.55	945.91 ± 0.56	949.02 ± 0.56	952.13 ± 0.56
293.15 K, x1 = 0.9592	930.67 ± 0.54	934.41 ± 0.54	937.96 ± 0.55	941.35 ± 0.55	944.61 ± 0.56	947.78 ± 0.56	950.89 ± 0.56	953.97 ± 0.56
303.15 K, x1 = 0.0302	809.38 ± 0.52	813.38 ± 0.53	817.11 ± 0.54	820.61 ± 0.55	823.91 ± 0.56	827.06 ± 0.57	830.08 ± 0.58	833.02 ± 0.6
303.15 K, x1 = 0.0602	816.25 ± 0.52	820.35 ± 0.52	824.12 ± 0.53	827.61 ± 0.54	830.9 ± 0.56	834.03 ± 0.57	837.07 ± 0.58	840.08 ± 0.59
303.15 K, x1 = 0.1007	825 ± 0.52	829.05 ± 0.52	832.79 ± 0.53	836.28 ± 0.54	839.57 ± 0.55	842.73 ± 0.56	845.81 ± 0.58	848.85 ± 0.59
303.15 K, x1 = 0.2007	844.03 ± 0.52	848.08 ± 0.53	851.83 ± 0.53	855.35 ± 0.54	858.69 ± 0.55	861.89 ± 0.56	865.03 ± 0.57	868.15 ± 0.58
303.15 K, x1 = 0.3007	860.04 ± 0.52	864.03 ± 0.53	867.77 ± 0.53	871.3 ± 0.54	874.67 ± 0.55	877.92 ± 0.56	881.1 ± 0.56	884.26 ± 0.57
303.15 K, x1 = 0.4013	873.63 ± 0.52	877.52 ± 0.53	881.22 ± 0.53	884.76 ± 0.54	888.16 ± 0.55	891.46 ± 0.55	894.68 ± 0.56	897.86 ± 0.57
303.15 K, x1 = 0.4512	879.59 ± 0.52	883.43 ± 0.53	887.11 ± 0.54	890.65 ± 0.54	894.08 ± 0.55	897.42 ± 0.55	900.69 ± 0.56	903.91 ± 0.57
303.15 K, x1 = 0.5007	885.03 ± 0.52	888.88 ± 0.53	892.55 ± 0.54	896.09 ± 0.54	899.51 ± 0.55	902.86 ± 0.55	906.16 ± 0.56	909.45 ± 0.56
303.15 K, x1 = 0.5502	890.11 ± 0.53	894.02 ± 0.53	897.73 ± 0.54	901.29 ± 0.54	904.73 ± 0.55	908.09 ± 0.55	911.42 ± 0.56	914.74 ± 0.56
303.15 K, x1 = 0.6045	895.25 ± 0.53	899.16 ± 0.53	902.88 ± 0.54	906.44 ± 0.54	909.9 ± 0.55	913.27 ± 0.55	916.62 ± 0.56	919.96 ± 0.56
303.15 K, x1 = 0.7005	903.5 ± 0.53	907.36 ± 0.53	911.08 ± 0.54	914.68 ± 0.54	918.19 ± 0.55	921.62 ± 0.55	925.01 ± 0.56	928.36 ± 0.56
303.15 K, x1 = 0.8026	911.12 ± 0.53	914.97 ± 0.54	918.68 ± 0.54	922.29 ± 0.55	925.8 ± 0.55	929.26 ± 0.56	932.68 ± 0.56	936.08 ± 0.56
303.15 K, x1 = 0.9026	917.53 ± 0.54	921.4 ± 0.54	925.14 ± 0.55	928.77 ± 0.55	932.32 ± 0.56	935.81 ± 0.56	939.25 ± 0.56	942.69 ± 0.57
303.15 K, x1 = 0.9303	919.17 ± 0.54	923.07 ± 0.54	926.83 ± 0.55	930.48 ± 0.55	934.04 ± 0.56	937.53 ± 0.56	940.98 ± 0.56	944.42 ± 0.57
303.15 K, x1 = 0.9616	921.02 ± 0.54	924.91 ± 0.55	928.67 ± 0.55	932.32 ± 0.55	935.89 ± 0.56	939.4 ± 0.56	942.88 ± 0.57	946.34 ± 0.57
313.15 K, x1 = 0.0302	801.72 ± 0.52	805.93 ± 0.53	809.83 ± 0.54	813.46 ± 0.55	816.91 ± 0.56	820.24 ± 0.57	823.51 ± 0.59	826.8 ± 0.6
313.15 K, x1 = 0.0603	808.58 ± 0.52	812.75 ± 0.53	816.62 ± 0.54	820.25 ± 0.55	823.69 ± 0.56	827.01 ± 0.57	830.28 ± 0.59	833.54 ± 0.6
313.15 K, x1 = 0.1019	817.15 ± 0.52	821.38 ± 0.53	825.29 ± 0.54	828.95 ± 0.55	832.41 ± 0.56	835.74 ± 0.57	839 ± 0.58	842.24 ± 0.59
313.15 K, x1 = 0.2001	835.66 ± 0.52	839.79 ± 0.53	843.65 ± 0.53	847.3 ± 0.54	850.79 ± 0.55	854.16 ± 0.56	857.46 ± 0.57	860.72 ± 0.58
313.15 K, x1 = 0.301	851.41 ± 0.52	855.57 ± 0.53	859.51 ± 0.53	863.24 ± 0.54	866.8 ± 0.55	870.21 ± 0.56	873.49 ± 0.57	876.67 ± 0.58
313.15 K, x1 = 0.3999	864.54 ± 0.52	868.7 ± 0.53	872.64 ± 0.54	876.4 ± 0.54	880 ± 0.55	883.45 ± 0.56	886.78 ± 0.57	890.02 ± 0.57
313.15 K, x1 = 0.4519	870.67 ± 0.52	874.82 ± 0.53	878.78 ± 0.54	882.54 ± 0.54	886.15 ± 0.55	889.61 ± 0.56	892.94 ± 0.56	896.17 ± 0.57
313.15 K, x1 = 0.5002	875.94 ± 0.53	880.09 ± 0.53	884.04 ± 0.54	887.81 ± 0.54	891.43 ± 0.55	894.9 ± 0.56	898.25 ± 0.56	901.51 ± 0.57
313.15 K, x1 = 0.5505	881.12 ± 0.53	885.27 ± 0.53	889.22 ± 0.54	893.01 ± 0.54	896.64 ± 0.55	900.13 ± 0.56	903.49 ± 0.56	906.74 ± 0.57
313.15 K, x1 = 0.6004	885.84 ± 0.53	890.02 ± 0.53	894 ± 0.54	897.79 ± 0.54	901.42 ± 0.55	904.91 ± 0.56	908.27 ± 0.56	911.52 ± 0.57
313.15 K, x1 = 0.701	894.49 ± 0.53	898.55 ± 0.53	902.51 ± 0.54	906.34 ± 0.55	910.04 ± 0.55	913.62 ± 0.56	917.04 ± 0.56	920.32 ± 0.57
313.15 K, x1 = 0.8004	901.91 ± 0.53	905.99 ± 0.54	909.92 ± 0.54	913.71 ± 0.55	917.39 ± 0.55	920.98 ± 0.56	924.48 ± 0.56	927.93 ± 0.57
313.15 K, x1 = 0.9	908.36 ± 0.54	912.45 ± 0.54	916.43 ± 0.55	920.31 ± 0.55	924.08 ± 0.56	927.72 ± 0.56	931.24 ± 0.57	934.63 ± 0.57
313.15 K, x1 = 0.9322	910.31 ± 0.54	914.45 ± 0.54	918.45 ± 0.55	922.31 ± 0.56	926.03 ± 0.56	929.63 ± 0.56	933.11 ± 0.57	936.46 ± 0.57
313.15 K, x1 = 0.9608	911.98 ± 0.54	916.12 ± 0.55	920.11 ± 0.55	923.96 ± 0.56	927.68 ± 0.56	931.27 ± 0.57	934.75 ± 0.57	938.13 ± 0.57
